Measurements: patent publication US20240400986A1, “MEMBRANE BOUND COMPOSITIONS AND METHODS RELATING TO SAME” (FLAGSHIP PIONEERING INNOVATIONS VII, LLC, priority 2021, published 2024)
Where two headings read alike, the source gives them in different places.

Tests used:
[1] = system: neuronal cell line derived from human neuroblastoma
[2] = system: neuronal cell line derived from human neuroblastoma; experiment: Small molecule compound screen of gigasome production in neuronal monocultures; conditions: for fold induction at 0.01 µM / fold induction at 0.1 µM / fold induction at 1 µM / fold induction at 10 µM: Homo sapiens, 24 h, read-out: Fold Change of Gigasomes Produced vs. DMSO; for Number of Gigasomes Produced / Fold Change of Gigasomes Produced vs. DMSO: neuronal cells, 24 hours
[3] = system: cardiomyocytic cell line derived from human ventricular heart tissue; experiment: Small molecule compound screen of gigasome production in cardiomyocytic monocultures;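 on all read-outs here: gigasomes shed into the culture medium were imaged by confocal microscopy and counted as round particles lacking nuclear signal, extrapolated to the whole well, fold change is relative to DMSO vehicle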; conditions: for Number of Gigasomes Produced / Fold Change of Gigasomes Produced vs. DMSO: cardiomyocytes
Method: For the screening, a total of 100 randomly organized compounds (TargetMol) were divided in 5 groups. Each group included an untreated condition, a vehicular DMSO control, and a known high-gigasome producing condition to comparatively study gigasome production rates. As a cell death control group, 500 nM Staurosporine was added to induce apoptosis. Cultures were incubated for 24 hours under gigasome inducing conditions at concentrations ranging between 10 nM and 10,000 nM. […] The Zeiss ZEN Blue software was used to distribute imaging fields of view (positions) to create an unbiased imaging sample of a well. 5 images were taken using a Zeiss LSM 900 confocal microscope. […] The BioApps ZEN software package was used to perform cell nucleus segmentation and counting. After 24 hours, gigasomes were harvested from the cell culture media by gently removing from the top of each 96-well ⅔ of the total volume without disturbing the cell layer (containing the settled gigasomes) and by adding to each well the same amount of PBS containing 0.5 mM EDTA. The wells were washed twice gently, and the gigasome-containing media/0.5 mM EDTA PBS wash was transferred into the well of a 384-well glass bottom plate. Cells remaining in the 96-well plates were assessed for viability using CellTiter-Glo (Promega).
For gigasome analysis in 384-well plates, the Zeiss ZEN Blue software was used to distribute positions to create an unbiased imaging sample of a well. 6 images per well were taken using a Zeiss LSM 900 confocal microscope. […] A watershed binary segmentation step was performed to separate grouped objects. For each particle in the mask, characteristic parameters of the particle were calculated and saved. […] Particles of interest were identified by thresholding by area and circularity. […] Circularity, defined by the formula 4pi(area/perimeter^2, was set to be between 0.8, where a value of 1.0 is a perfect circle, and a value of 0 is a line. Gigasomes were identified from the particles of interest by thresholding by mean nuclear signal. The nuclear signal threshold was set using a value equal to one quarter of a threshold value calculated by the Li auto-threshold algorithm applied to the distribution of all particles of interest. Particles of interest with nuclear signal below this value were considered “negative” for nuclear material and were identified as gigasomes. A sampling factor was calculated to extrapolate the total quantity of a type of object (particles, particles of interest, gigasomes) in the well. The sampling factor was the percentage of the well's area that was imaged. […] In some experiments, the number of cells in the cell cultures were estimated with a cell counter. […] The normalized quantity or distribution of objects was described as a quantity or distribution of objects per 1000 cells.

[4] = system: cardiomyocytic cell line derived from human ventricular heart tissue; experiment: Cell viability in cardiomyocyte compound screen (CellTiter-Glo); assay type: cell-based
[5] = neuronal cells, dose 10 nM, 24 hours
[6] = neuronal cells, dose 100 nM, 24 hours
[7] = neuronal cells, dose 1000 nM, 24 hours
[8] = neuronal cells, dose 10000 nM, 24 hours
[9] = Homo sapiens, Cardiomyocyte, 24 h, read-out: Fold Change of Gigasomes Produced vs. DMSO
[10] = Table 22, dose 1000 nM, 24 hours
[11] = Table 23 (down-regulators), dose 10 nM
[12] = Table 23 (down-regulators), dose 100 nM
[13] = Table 23 (down-regulators), dose 1000 nM
[14] = Table 23 (down-regulators), dose 10000 nM

## CC(C)[C@H](O)C(=O)N[C@@H](C)C(=O)N[C@@H]1C(=O)N(C)CCc2ccccc21 [Semagacestat]
[1]; [5]
  Viability: 100%
[1]; [6]
  Viability: 100%
[1]; [7]
  Viability: 100%
[1]; [8]
  Viability: 100%
[2]
  fold induction at 0.01 µM: 0.75 to 1
  fold induction at 0.1 µM: 0.75 to 1
  fold induction at 1 µM: 0.5 to 0.75
  fold induction at 10 µM: 0.5 to 0.75
[2]; dose 10 nM
  Number of Gigasomes Produced: >40
[2]; dose 100 nM
  Number of Gigasomes Produced: 35-40
[2]; dose 1000 nM
  Number of Gigasomes Produced: 20-25
[2]; dose 10000 nM
  Number of Gigasomes Produced: 20-25

## CC(/C=C/C(=O)NO)=C\[C@@H](C)C(=O)c1ccc(N(C)C)cc1 [Trichostatin A]
[1]; [7]
  Viability: 50-75%
[2]; dose 1000 nM
  Fold Change of Gigasomes Produced vs. DMSO: 1.75-2.0
  Number of Gigasomes Produced: 55-65

## C=C(C)[C@@H]1CC[C@]2(C(=O)O)CC[C@]3(C)[C@H](CC[C@@H]4[C@@]5(C)CC[C@H](O)C(C)(C)[C@@H]5CC[C@]43C)[C@@H]12 [Betulinic acid]
[1]; human, 24 h, 10 nM
  Viability: 100%
[1]; human, 24 h, 100 nM
  Viability: 100%
[1]; human, 24 h, 10000 nM
  Viability: 100%
[2]
  fold induction at 0.01 µM: 0.5 to 0.75
  fold induction at 0.1 µM: 1.25 to 1.5
  fold induction at 10 µM: 1.5 to 1.75
[2]; dose 10 nM
  Number of Gigasomes Produced: <35
[2]; dose 100 nM
  Number of Gigasomes Produced: 55-65
[2]; dose 10000 nM
  Number of Gigasomes Produced: 55-65

## NC1=N[C@@]2(c3cc(NC(=O)c4ccc(F)cn4)ccc3F)COC[C@H]2CS1 [LY288672, reference compound]
[3]; [9]
  fold induction at 1 µM: 1.5 to 1.75
[3]; [10]
  Number of Gigasomes Produced: 175-200
[4]; human, 24 h, 1000 nM
  Viability: >75%

## CCCCCCCCCCCCCCOc1ccc(C(=O)O)o1 [TOFA]
[3]; [11]
  Fold Change of Gigasomes Produced vs. DMSO: 1.0-1.25
  Number of Gigasomes Produced: 120-135
[3]; [12]
  Fold Change of Gigasomes Produced vs. DMSO: 1.0-1.25
  Number of Gigasomes Produced: 105-120
[3]; [13]
  Fold Change of Gigasomes Produced vs. DMSO: 0.75-1.0
  Number of Gigasomes Produced: 105-120
[3]; [14]
  Fold Change of Gigasomes Produced vs. DMSO: 0.75-1.0
  Number of Gigasomes Produced: 75-90
[4]; Table 23 (down-regulators), dose 10 nM, cardiomyocytes
  Viability: >75%
[4]; Table 23 (down-regulators), dose 100 nM, cardiomyocytes
  Viability: 100.0%
[4]; Table 23 (down-regulators), dose 1000 nM, cardiomyocytes
  Viability: >75%
[4]; Table 23 (down-regulators), dose 10000 nM, cardiomyocytes
  Viability: 100.0%

## COC(=O)c1ccc([C@@H]2c3[nH]c4ccccc4c3C[C@@H](C(=O)OC)N2C(=O)CCl)cc1 [RSL3, reference compound]
[1]; [7]
  Viability: >75%
[2]; dose 1000 nM
  Fold Change of Gigasomes Produced vs. DMSO: 2.0-3.0
  Number of Gigasomes Produced: 55-65

## O=S(=O)(c1ccccc1)N(CC(F)(F)F)c1ccc(C(O)(C(F)(F)F)C(F)(F)F)cc1 [Compound T0901317]
[3]; [9]
  fold induction at 10 µM: 1 to 1.25
[3]; Table 22, dose 10000 nM, 24 hours
  Number of Gigasomes Produced: 150-175
[4]; human, 24 h, 10000 nM
  Viability: >75%

## CC(=O)Nc1cccc(-n2c(=O)n(C3CC3)c(=O)c3c(Nc4ccc(I)cc4F)n(C)c(=O)c(C)c32)c1 [Trametinib, reference compound]
[1]; human, 24 h, 10 nM
  Viability: >75%
[1]; human, 24 h, 100 nM
  Viability: >75%
[1]; human, 24 h, 1000 nM
  Viability: >75%
[2]
  fold induction at 0.01 µM: 1.25 to 1.5
  fold induction at 0.1 µM: 1.25 to 1.5
  fold induction at 1 µM: 2 to 3
[2]; dose 10 nM
  Number of Gigasomes Produced: 35-45
[2]; dose 100 nM
  Number of Gigasomes Produced: 35-45
[2]; dose 1000 nM
  Number of Gigasomes Produced: 65-75

## Nc1ncn([C@@H]2O[C@H](CO)[C@@H](O)[C@H]2O)c(=O)n1 [Compound 5-Azacytidine, 5-Azacytidine]
[3]; [9]
  fold induction at 1 µM: 1 to 1.25
[3]; [10]
  Number of Gigasomes Produced: 150-175
[4]; human, 24 h, 1000 nM
  Viability: 50-75%

## CN1C(=N)N[C@](C)(c2cc(NC(=O)c3ccc(F)cn3)ccc2F)CS1(=O)=O [Verubecestat]
[1]; [5]
  Viability: 100%
[1]; [6]
  Viability: 100%
[1]; [7]
  Viability: 100%
[1]; [8]
  Viability: 100%
[2]
  fold induction at 0.01 µM: 0.75 to 1
  fold induction at 0.1 µM: 0.5 to 0.75
  fold induction at 1 µM: 0.5 to 0.75
  fold induction at 10 µM: 0.5 to 0.75
[2]; dose 10 nM
  Number of Gigasomes Produced: 35-40
[2]; dose 100 nM
  Number of Gigasomes Produced: 25-30
[2]; dose 1000 nM
  Number of Gigasomes Produced: 20-25
[2]; dose 10000 nM
  Number of Gigasomes Produced: 20-25

## O=C(Nc1ccc(O)c(C(=O)O)c1)c1cccc(NC(=O)c2ccco2)c1 [OSS_128167]
[1]; [8]
  Viability: 100%
[2]; dose 10000 nM
  Fold Change of Gigasomes Produced vs. DMSO: 0.5-0.75
  Number of Gigasomes Produced: 20-25

## CC(C)(O)c1coc(S(=O)(=O)NC(=O)Nc2c3c(cc4c2CCC4)CCC3)c1 [MCC950 sodium]
[1]; [5]
  Viability: 100%
[1]; [6]
  Viability: >75%
[1]; [7]
  Viability: 100%
[1]; [8]
  Viability: 100%
[2]
  fold induction at 0.01 µM: 1 to 1.25
  fold induction at 0.1 µM: 1 to 1.25
  fold induction at 1 µM: 0.5 to 0.75
  fold induction at 10 µM: 0.75 to 1
[2]; dose 10 nM
  Number of Gigasomes Produced: 35-40
[2]; dose 100 nM
  Number of Gigasomes Produced: 35-40
[2]; dose 1000 nM
  Number of Gigasomes Produced: 20-25
[2]; dose 10000 nM
  Number of Gigasomes Produced: 25-30

## O=C(Nc1ccc(O)c(C(=O)O)c1)c1cccc(NC(=O)c2ccco2)c1 [OSS128167]
[1]; [5]
  Viability: 100%
[1]; [6]
  Viability: >75%
[1]; [7]
  Viability: 100%
[2]; dose 10 nM
  Fold Change of Gigasomes Produced vs. DMSO: 1.0-1.25
  Number of Gigasomes Produced: >40
[2]; dose 100 nM
  Fold Change of Gigasomes Produced vs. DMSO: 0.75-1.0
  Number of Gigasomes Produced: 25-30
[2]; dose 1000 nM
  Fold Change of Gigasomes Produced vs. DMSO: 0.75-1.0
  Number of Gigasomes Produced: 25-30
